Like-named read-outs stand apart in the source and are kept apart here.

The text below walks through data of patent US20240122179A1, “AUXINIC HERBICIDES AND METHODS OF USE THEREOF” (CORTEVA AGRISCIENCE LLC, priority 2021, published 2024).

For one data set, the system named is Amaranthus rudis (AMATA). Kind of data set: Postemergence herbicide evaluation, percent reduction in plant size vs untreated control, 21 days after treatment. Conditions: Amaranthus tuberculatus, post-emergence, 504 h, AMATA, postemergence, read-out: Control/Injury; for pest or weed control at 140 g/ha: rate 140 g ae/ha; for pest or weed control at 280 g/ha: rate 280 g ae/ha. Format: in vivo, Amaranthus rudis (tall water hemp). The procedure, abridged: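 Greenhouse-grown tall waterhemp (25-28° C, 16 h light) at the 2-8 leaf stage, treated by track sprayer at 187 L/ha with compound at 140 or 280 g ae/ha in acetone/DMSO-based spray solution with crop oil and surfactant. 3-4 replicates per treatment, randomized complete block; plant size reduction versus untreated control measured 21 days after treatment.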

The subject of data set [1] is Amaranthus palmeri (AMAPA). The data set is described as above. Format: in vivo, Amaranthus palmeri (Palmer amaranth). Conditions: post-emergence, 504 h, postemergence, read-out: Control/Injury; for pest or weed control at 140 g/ha: rate 140 g ae/ha; for pest or weed control at 280 g/ha: rate 280 g ae/ha. The procedure, abridged:
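Greenhouse-grown Palmer amaranth (25 to 28° C, 16 h light) sprayed postemergence at the 2 to 8 leaf stage with 140 or 280 g ae/ha in acetone/DMSO-based solution containing crop oil concentrate, 187 L/ha by track sprayer. Three to four replicates; plant size measured 21 days after treatment as percent reduction versus untreated control.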

The next data set relates to Kochia scoparia (KCHSC). Described as above. Format: in vivo. To be noted: Bassia scoparia, post-emergence, 504 h, KCHSC, postemergence, read-out: Control/Injury; for pest or weed control at 140 g/ha: rate 140 g ae/ha; for pest or weed control at 280 g/ha: rate 280 g ae/ha. The method in brief: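 Greenhouse-grown plants (25-28 °C, 16 h light) at the 2 to 8 leaf stage were track-sprayed postemergence at 140 or 280 g ae/ha in acetone/DMSO-based spray solution with crop oil and surfactant, at 187 L/ha, in 3-4 randomized replicates.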

Data set [2] relates to Conyza canadensis (L.) (ERICA). The data set is described as above. Format: in vivo, Conyza canadensis (L.) (Horseweed). Conditions: Erigeron canadensis, post-emergence, 504 h, ERICA, postemergence, read-out: Control/Injury; for pest or weed control at 140 g/ha: rate 140 g ae/ha; for pest or weed control at 280 g/ha: rate 280 g ae/ha. The procedure, abridged: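 Horseshoe-weed (horseweed) seedlings at 2 to 8 leaf stage in greenhouse (25-28° C, 16 h light), sprayed postemergence at 140 or 280 g ae/ha in acetone/DMSO-based spray solution, 187 L/ha track-sprayer. Randomized complete block, 3-4 replicates; plant size measured 21 days after treatment as percent reduction vs untreated controls.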

In another data set the test system is Glycine max. In words: whole plant or invertebrate. To be noted: for plant injury at 280 g/ha / plant injury at 140 g/ha: Glycine max, post-emergence, 504 h, read-out: Control/Injury; for Control/Injury: in vivo. The method, then:
Plants were grown in a soil media composed of 90% by volume Promix BX (Premier Tech Horticulture, Quakertown, PA) and 10% Profile Greens Grade (Profile Products LLC, Buffalo Grove, IL). Promix BX contains approximately 83% Sphagnum Peat Moss, 13% Perlite, 5% vermiculite, and proprietary amounts of limestone, starter fertilizer, and wetting agent. Profile Greens Grade is a sand-sized granule formed from calcining illite and montmorillonite clay. Several seeds of each species were planted in 10 cm square pots and top watered twice daily. Plant material was propagated in a warm greenhouse with temperature ranging from 25 to 28° C. and 50 to 60% relative humidity at the Corteva Global Headquarters (Indianapolis, Indiana, USA). Natural light was supplemented with 1000-watt metal halide overhead lamps with an average illumination of 500 μE m^−2 s^−1 photosynthetic active radiation for 16 consecutive hours each day. Plants were top-watered prior to herbicide application and sub-watered after herbicide application.
Appropriate amounts of test materials were weighed out into glass vials in their technical form to deliver either 140 or 280 g acid equivalent (ae)/ha. The samples were dissolved in 3 ml of Solvent 1. Solvent 1 is 97% acetone and 3% dimethyl sulfoxide and serves as a general-purpose solvent (GPS) for dissolving technical materials. […] The samples were then diluted to their final concentration using 17 ml of solvent 2 for a total of 20 ml of spray solution. Solvent 2 contains 41.58% GPS, 45.53% water, 11.88% isopropyl alcohol, 0.99% crop oil concentrate and 0.02% Trition X-155 surfactant. All percentages are listed on a volume basis. Dicamba diglycolamine was applied as a formulated herbicide, Clarity™ and diluted with solvent 2 to compare all materials in the same spray solution.
Herbicide applications were made to 3 to 4 replicates of each plant species at the 2 to 8 leaf stage, depending on the species. Treatments were applied with a research track-sprayer (Generation III Research Sprayer manufactured by DeVries Manufacturing in Hollandale, MN, USA) calibrated to deliver a spray volume of 187 L/ha. The track-sprayer was fitted with an 8003E nozzle from Spray Systems Company (North Avenue and Schmale Road, P.O. Box 7900, Wheaton, IL 60187), and used a spray pressure of 276 kPa pressure and a speed of 3.1 km/h. The nozzle height was 46 cm above the plant canopy. The experimental design used for the trials was a randomized complete block with 3 or 4 replications per treatment. After application, plants were placed on carts according to the randomization and returned to the greenhouse. Plants were sub-watered after treatment with Indianapolis city water or fertilized three times a week with a commercial fertilizer solution (Jack's Professional 15-5-15 4 Ca 2 Mg fertilizer (manufactured by JR PETERS INC., 6656 Grant Way, Allentown, PA 18106; www.jrpeters.com). Percent visual control assessments were made on a scale of 0 to 100% (where 0 was no control and 100 was complete plant death) at 7, 14, and 21 days after treatment.
In conformity with the methods outlined in Example 49, the effect of representative experimental compounds on the growth of Glycine max was determined at 2 different levels (respectively, 140 and 280 g acid equivalent (ae)/ha) of the experimental actives tested. Plants were treated with one of the compounds, a control plant was not treated. Twenty-one days after treatment, the plants were measured. The data is present as a percent reduction in plant size relative to the untreated control.

Data set [3] has as its system Ambrosia artemisiifolia (AMBEL). In words: Postemergence herbicide evaluation, percent reduction in plant size vs untreated control, 21 days after treatment. Format: in vivo, Ambrosia artemisiifolia (common ragweed). Conditions: post-emergence, 504 h, AMBEL, postemergence, read-out: Control/Injury; for pest or weed control at 140 g/ha: rate 140 g ae/ha; for pest or weed control at 280 g/ha: rate 280 g ae/ha. The method in brief: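 Greenhouse-grown plants (25–28 °C, 16 h light) were sprayed postemergence at the 2–8 leaf stage with 140 or 280 g ae/ha in acetone/DMSO-based spray solution with crop oil and surfactant, at 187 L/ha by track sprayer. There were 3–4 replicates. Plant size was measured 21 days after treatment versus untreated plants.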

Setting [4] is: R-AMAPA, percent reduction vs untreated control, 21 days after treatment.
[5] abbreviates: percent reduction vs untreated control, 21 days after treatment.
The mark [6] stands for this setting: percent reduction vs untreated, 21 days after treatment.

In the case of `COc1c(Cl)ccc(Cl)c1C(=O)ON1C(=O)CCC1=O` [Compound A-73], the pest or weed control at 140 g/ha stood at 50% with Amaranthus rudis (AMATA); 70% in data set [1] (setting [4]); 82% in the data set with Kochia scoparia (KCHSC); 85% in data set [2] (setting [5]); 77% in data set [3]. Also, the pest or weed control at 280 g/ha in the data set on Amaranthus rudis (AMATA) amounted to 88%; in data set [1] (setting [4]), 83%; in the data set on Kochia scoparia (KCHSC), 88%; in data set [2] (setting [5]), 80%; in data set [3] it was 82%. Further, the plant injury at 280 g/ha in the data set on Glycine max is 4%. In the data set on Glycine max, this molecule had a Control/Injury of 1.

`COCCONC(=O)c1c(Cl)ccc(Cl)c1OC` [Compound A-95]: the pest or weed control at 140 g/ha is 5% in data set [1] (AMAPA); 42% in data set [1] (setting [4]); 57% in the data set on Kochia scoparia (KCHSC) (setting [5]); 3% with Kochia scoparia (KCHSC) (setting [6]); 3% in data set [2]; 8% in data set [2] (setting [5]). In addition, the pest or weed control at 280 g/ha in data set [1] (AMAPA) was determined as 13%; in data set [1] (setting [4]), 55%; in the data set on Kochia scoparia (KCHSC) (setting [5]), 77%; with Kochia scoparia (KCHSC) (setting [6]), 3%; in data set [2], 5%; in data set [2] (setting [5]), 17%. For the same molecule, in the data set on Glycine max, the plant injury at 140 g/ha amounted to 4%. In addition, the plant injury at 280 g/ha in the data set with Glycine max was 6%. In the data set on Glycine max, this molecule registered a Control/Injury of 15.

For the molecule `CCO/C(C)=N\OC(=O)c1c(Cl)ccc(Cl)c1OC` [Compound A-93], the pest or weed control at 140 g/ha in the data set on Amaranthus rudis (AMATA) is 60%; in data set [1] (setting [4]) it was 68%; in the data set with Kochia scoparia (KCHSC) (setting [5]), 77%; in data set [2] (setting [5]) it was 63%; in data set [3] it was 68%. For the same molecule, the pest or weed control at 280 g/ha was 75% with Amaranthus rudis (AMATA); 80% in data set [1] (setting [4]); 93% with Kochia scoparia (KCHSC) (setting [5]); 80% in data set [2] (setting [5]); 90% in data set [3]. In the data set on Glycine max, the plant injury at 140 g/ha was 10%. The plant injury at 280 g/ha in the data set with Glycine max is 5%.

Turning to `COc1c(Cl)ccc(Cl)c1C(=O)NS(=O)(=O)c1nccn1C` [Compound A-79], the pest or weed control at 140 g/ha with Amaranthus rudis (AMATA) worked out at 7%; in data set [1] (setting [4]), 13%; in the data set with Kochia scoparia (KCHSC) (setting [5]) it was 0%; in data set [2] (setting [5]), 0%; in data set [3], 15%. Besides, the pest or weed control at 280 g/ha came to 13% in the data set on Amaranthus rudis (AMATA); 10% in data set [1] (setting [4]); 3% with Kochia scoparia (KCHSC) (setting [5]); 2% in data set [2] (setting [5]); 22% in data set [3]. For the same molecule, in the data set with Glycine max, the plant injury at 140 g/ha worked out at 6%. Besides, the plant injury at 280 g/ha in the data set with Glycine max stood at 3%.

Turning to `COc1c(Cl)ccc(Cl)c1C(=O)NCc1ccccc1` [Compound A-114], the pest or weed control at 140 g/ha in the data set with Amaranthus rudis (AMATA) was 0%; in data set [1] (AMAPA), 5%; in the data set with Kochia scoparia (KCHSC) (setting [6]) it was 0%; in data set [2], 2%; in data set [3], 5%. Further, the pest or weed control at 280 g/ha in the data set with Amaranthus rudis (AMATA) turned out to be 5%; in data set [1] (AMAPA), 5%; in the data set on Kochia scoparia (KCHSC) (setting [6]), 0%; in data set [2], 7%; in data set [3] it was 0%. Besides, the Control/Injury with Glycine max is on record as 3.

For the molecule `COc1c(Cl)ccc(Cl)c1C(=O)Oc1cncnc1` [Compound A-66], the pest or weed control at 140 g/ha in the data set with Amaranthus rudis (AMATA) was 0%; in data set [1] (setting [4]), 13%; in the data set with Kochia scoparia (KCHSC), 0%; in data set [2] (setting [5]), 0%; in data set [3], 15%. Also, the pest or weed control at 280 g/ha in the data set on Amaranthus rudis (AMATA) was 2%; in data set [1] (setting [4]), 5%; in the data set on Kochia scoparia (KCHSC) it was 0%; in data set [2] (setting [5]) it was 2%; in data set [3], 15%. For the same molecule, the Control/Injury with Glycine max is 3.

As for `COc1c(Cl)ccc(Cl)c1C(=O)N1C(=O)C(=O)c2ccccc21` [Compound A-116], the pest or weed control at 140 g/ha in the data set with Amaranthus rudis (AMATA) stood at 5%; in data set [1] (AMAPA), 8%; in the data set on Kochia scoparia (KCHSC) (setting [6]) it was 0%; in data set [2] it was 3%; in data set [3], 3%. Moreover, the pest or weed control at 280 g/ha with Amaranthus rudis (AMATA) came out at 33%; in data set [1] (AMAPA) it was 30%; in the data set with Kochia scoparia (KCHSC) (setting [6]) it was 5%; in data set [2], 5%; in data set [3], 10%. Moreover, in the data set on Glycine max, the Control/Injury was determined as 2.
